Assay results from US20140302012A1, “Combination Therapies for Treating Hematologic Malignancies Using Pyridopyrimidinone Inhibitors of PI3K/mTOR with Bendamustine and/or Rituximab” (priority 2011, published 2014).
Where two headings read alike, the source gives them in different places.

Experiments:
[1] = Maximum tolerated dose of Compound A administered as single agent; conditions: twice daily
[2] = test system: human WSU-DLCL2; assay: Antitumor activity against human WSU-DLCL2 xenografts in SCID female mice; format: in vivo; conditions: for Median (nMad) tumor volume changes from baseline: n = 7
Protocol: To evaluate the antitumor activity of Bendamustine in combination with the dual pan-PI3K/mTOR inhibitor Compound A, experiments were conducted using female SCID mice bearing human WSU-DLCL2 xenografts. In this study, Bendamustine at 3.5 and 7 mg/kg was tested in combination with Compound A at 20 mg/kg.
CB17/1CR-Prkdc severe combined immunodeficiency (SCID)/Crl mice, at 8-10 weeks old, were bred at Charles River France (Domaine des Oncins, 69210 L'Arbreste, France) from strains obtained from Charles River, USA. Mice were over 18 g at start of treatment after an acclimatization time of at least 5 days. […] They were housed on a 12 hours light/dark cycle. Environmental conditions including animal maintenance, room temperature (22° C.±2° C.), relative humidity (55%±15%) and lighting times were recorded by the supervisor of laboratory animal sciences and welfare (LAW) and the records are archived.
The human WSU-DLCL2 tumor model was established by implanting (SC) small tumor fragments and was maintained in SCID female mice using serial passages.
Bendamustine formulation was prepared by incorporating the compound into NaCl 0.9% at pH 3. The preparation was prepared daily prior administration. The volume of IP administration per mouse was 10 mL/kg.
(§1) Compound A formulations were prepared in 1N HCl and water for injection, final pH was 3, followed by five cycles of vortexing and sonicating. The stock solution was chemically stable 7 days in the dark at 4° C. The volume of PO administration per mouse was 10 mL/kg.
For subcutaneous implantation of tumor cells, skin in the flank of the mice was disinfected using alcohol or Betadine® solution (Alcyon) and a suspension of tumor cells was inoculated SC unilaterally under a volume of 0.2 mL using a 23 G needle.
The animals required to begin a given experiment were pooled and implanted monolaterally on day 0. Treatments were administered on measurable tumors. The solid tumors were allowed to grow to the desired volume range (animals with tumors not in the desired range were excluded). The mice were then pooled and unselectively distributed to the various treatment and control groups. […] The dosages are expressed in mg/kg, based on the body weight at start of therapy. Mice were checked daily, and adverse clinical reactions noted. Each group of mice was weighed as a whole daily until the weight nadir was reached. Then, groups were weighed once to thrice weekly until the end of the experiment. Tumors were measured with a calliper 2 to 3 times weekly until final sacrifice for sampling time, tumor reached 2000 mm^3 or until the animal died (whichever comes first). Solid tumor volumes were estimated from two-dimensional tumor measurements and calculated according to the following equation:
Tumor weight (mg)=Length (mm)×Width^2(mm^2)/2
The primary efficacy end points are ΔT/ΔC, percent median regression, partial and complete regressions (PR and CR).
Changes in tumor volume for each treated (T) and control (C) group were calculated for each tumor by subtracting the tumor volume on the day of first treatment (staging day) from the tumor volume on the specified observation day. The median ΔT is calculated for the treated group, and the median ΔC is calculated for the control group. Then the ratio ΔT/ΔC is calculated and expressed as a percentage. The dose is considered as therapeutically active when ΔT/ΔC is lower than 40% and very active when ΔT/ΔC is lower than 10%.
Partial regression: Regressions are defined as partial if the tumor volume decreases to 50% or the tumor volume at the start of treatment.
Complete regression: The CR is achieved when tumor volume=0 mm^3 (CR is considered when tumor volume cannot be recorded).
The term “therapeutic synergy” is used when the combination of two products at given doses is more efficacious than the best of the two products alone considering the same doses.

[3] = format: in vivo
Protocol: The animals required to begin a given experiment were pooled and implanted monolaterally on day 0. Treatments were administered on measurable tumors. The solid tumors were allowed to grow to the desired volume range (animals with tumors not in the desired range were excluded). The mice were then pooled and unselectively distributed to the various treatment and control groups. Treatment started 20 days post WSU-DLCL2 tumor fragment implantation as indicated in the results section and in each table. The dosages are expressed in mg/kg, based on the body weight at start of therapy. Mice were checked daily, and adverse clinical reactions noted. Each group of mice was weighed as a whole daily until the weight nadir was reached. Then, groups were weighed once to thrice weekly until the end of the experiment. Tumors were measured with a calliper 2 to 3 times weekly until final sacrifice for sampling time, tumor reached 2000 mm^3 or until the animal died (whichever comes first). Solid tumor volumes were estimated from two-dimensional tumor measurements and calculated according to the following equation: […]
The day of death was recorded. Surviving animals were sacrificed and macroscopic examination of the thoracic and abdominal cavities was performed.
A dosage producing a 15% body weight loss (BWL) during three consecutive days (mean of group), 20% BWL during 1 day or 10% or more drug deaths was considered an excessively toxic dosage. Animal body weights included the tumor weight.

[4] = Chemical stability of Compound A stock solution; format: physicochemical; conditions: formulation in 1N HCl and water for injection, final pH 3; in the dark at 4° C.
Protocol: as §1

[5] = Compound A 20 mg/kg per injection (total 240) PO, days 20-31
[6] = Bendamustine 3.5 mg/kg per injection (total 21) IP, days 20-25
[7] = Bendamustine 7 mg/kg per injection (total 42) IP, days 20-25

In the case of `CCn1c(=O)c(-c2ccn[nH]2)cc2c(C)nc(N)nc21` [Compound A, 2-amino-8-ethyl-4-methyl-6-(1H-pyrazol-5-yl)pyrido[2,3-d]pyrimidin-7(8H)-one], the “MTD of Compound A administered as single agent” value [1] is reported as 50 mg BID, the “Regressions Complete” value [2, 5] is reported as 0/7 and the “Regressions Partial” value [2, 5] is reported as 0/7. For the same molecule, the “Median ΔT/ΔC in % day 31” value ([2]; Compound A 20 mg/kg per injection (total 240) PO, days 20-31, day 31, 20 mg/kg) was 54%, the “Median (nMad) tumor volume changes from baseline” value ([2]; Compound A 20 mg/kg, Day 24) was 145 (139.4) and the “Median (nMad) tumor volume changes from baseline” value ([2]; Compound A 20 mg/kg, Day 26) was 218 (26.7). The “Median (nMad) tumor volume changes from baseline” value ([2]; Compound A 20 mg/kg, Day 28) was 242 (172), the “Median (nMad) tumor volume changes from baseline” value ([2]; Compound A 20 mg/kg, Day 31) was 314 (317.3) and the “Drug death (Day of death)” value [3, 5] was 0/7. For the same molecule, the “Average body weight change in % per mouse at nadir” value ([3]; mouse, in vivo, po, 20 mg/kg) was −2.0%, the “day of nadir (body weight)” value ([3]; mouse, in vivo, po, 20 mg/kg) was 21 days and the “Chemical stability of stock solution” value [4] was 7 days.

In the case of `Cn1c(CCCC(=O)O)nc2cc(N(CCCl)CCCl)ccc21` [Bendamustine, 4-[5-[Bis(2-chloroethyl)amino]-1-methylbenzimidazol-2-yl]butanoic acid], the “Regressions Complete” value [2, 6] is reported as 0/7, the “Regressions Partial” value [2, 6] is reported as 0/7 and the “Median (nMad) tumor volume changes from baseline” value ([2]; Bendamustine 3.5 mg/kg, Day 24) is reported as 170 (62.3). For the same molecule, the “Median (nMad) tumor volume changes from baseline” value ([2]; Bendamustine 3.5 mg/kg, Day 26) was 222 (89), the “Median (nMad) tumor volume changes from baseline” value ([2]; Bendamustine 3.5 mg/kg, Day 28) was 268 (252) and the “Median (nMad) tumor volume changes from baseline” value ([2]; Bendamustine 3.5 mg/kg, Day 31) was 483 (247.6). The “Regressions Complete” value [2, 7] was 0/7, the “Regressions Partial” value [2, 7] was 0/7 and the “Median (nMad) tumor volume changes from baseline” value ([2]; Bendamustine 7 mg/kg, Day 24) was 267 (198.7). The “Median (nMad) tumor volume changes from baseline” value ([2]; Bendamustine 7 mg/kg, Day 26) was 317 (258), the “Median (nMad) tumor volume changes from baseline” value ([2]; Bendamustine 7 mg/kg, Day 28) was 306 (268.4) and the “Median (nMad) tumor volume changes from baseline” value ([2]; Bendamustine 7 mg/kg, Day 31) was 477 (249.1). The “Average body weight change in % per mouse at nadir” value [3, 6] was −3.8%, the “Drug death (Day of death)” value [3, 6] was 0/7 and the “day of nadir (body weight)” value [3, 6] was 28 days. For the same molecule, the “Average body weight change in % per mouse at nadir” value [3, 7] was −7.2%, the “Drug death (Day of death)” value [3, 7] was 0/7 and the “day of nadir (body weight)” value [3, 7] was 27 days. For the same molecule, the Tolerability ([3]; as single agents or in combination: Bendamustine 3.5 and 7 mg/kg, Compound A 20 mg/kg) was “tolerated”.
